Assay results as given in publication PMC5218480 (PLoS ONE, 2017).

Tested on: MV-4-11 cells
Test: Gene expression microarray analysis (Affymetrix PrimeView) and GSEA
Assay type: cell-based, human
Design: RFU PODN (11730768_x_at) / Fold change /veh PODN (11730768_x_at) / RFU LINC00158 (11744669_a_at) / Fold change /veh LINC00158 (11744669_a_at) / RFU DUSP10 (11751237_a_at) / Fold change /veh DUSP10 (11751237_a_at) / RFU ID3 (11757404_x_at) / Fold change /veh ID3 (11757404_x_at) / RFU PLEKHG5 (11737974_s_at) / Fold change /veh PLEKHG5 (11737974_s_at) / RFU LRRC4B (11730491_at) / Fold change /veh LRRC4B (11730491_at) / RFU GIMAP4 (11747438_a_at) / Fold change /veh GIMAP4 (11747438_a_at) / RFU KRT8 (11758183_x_at) / Fold change /veh KRT8 (11758183_x_at) / RFU CNN1 (11734310_a_at) / Fold change /veh CNN1 (11734310_a_at) / RFU VPS37D (11726825_at) / Fold change /veh VPS37D (11726825_at) / RFU C10orf10 (11716522_x_at) / Fold change /veh C10orf10 (11716522_x_at) / RFU KIR2DL2 /// KIR2DL4 /// KIR2DL5A /// KIR2DL5B /// KIR2DS1 /// KIR2DS2 /// KIR2DS3 /// KIR2DS4 /// KIR3DL3 /// KIR3DL3 /// KIR3DS1 (11738374_at) / Fold change /veh KIR2DL2 /// KIR2DL4 /// KIR2DL5A /// KIR2DL5B /// KIR2DS1 /// KIR2DS2 /// KIR2DS3 /// KIR2DS4 /// KIR3DL3 /// KIR3DL3 /// KIR3DS1 (11738374_at) / RFU C1QL1 (11718748_at) / Fold change /veh C1QL1 (11718748_at) / RFU TMPRSS4 (11747572_a_at) / Fold change /veh TMPRSS4 (11747572_a_at) / RFU HAMP (11756126_x_at) / Fold change /veh HAMP (11756126_x_at) / RFU RNFT2 (11725882_a_at) / Fold change /veh RNFT2 (11725882_a_at) / RFU NR4A2 (11747474_a_at) / Fold change /veh NR4A2 (11747474_a_at) / RFU ABCC12 (11746883_a_at) / Fold change /veh ABCC12 (11746883_a_at) / RFU TMEM136 (11760407_x_at) / Fold change /veh TMEM136 (11760407_x_at) / RFU CLDN22 /// WWC2 (11732394_at) / Fold change /veh CLDN22 /// WWC2 (11732394_at) / RFU HLA-DPB1 (11760878_x_at) / Fold change /veh HLA-DPB1 (11760878_x_at) / RFU SPINT1 (11716480_a_at) / Fold change /veh SPINT1 (11716480_a_at) / RFU GAP43 (11754022_s_at) / Fold change /veh GAP43 (11754022_s_at) / RFU A4GNT (11735810_at) / Fold change /veh A4GNT (11735810_at) / RFU PRB3 (11715151_x_at) / Fold change /veh PRB3 (11715151_x_at) / RFU TUBB4B (11761932_at) / Fold change /veh TUBB4B (11761932_at) / RFU CAPN14 (11732068_a_at) / Fold change /veh CAPN14 (11732068_a_at) / RFU TMCC2 (11721928_a_at) / Fold change /veh TMCC2 (11721928_a_at) / RFU IRGQ (11745062_a_at) / Fold change /veh IRGQ (11745062_a_at) / RFU FAM174B (11720279_a_at) / Fold change /veh FAM174B (11720279_a_at) / RFU TMPRSS4 (11748680_a_at) / Fold change /veh TMPRSS4 (11748680_a_at) / RFU FAM212B (11763350_a_at) / Fold change /veh FAM212B (11763350_a_at) / RFU PLEKHG5 (11743358_a_at) / Fold change /veh PLEKHG5 (11743358_a_at) / RFU ZSCAN30 (11745921_a_at) / Fold change /veh ZSCAN30 (11745921_a_at) / RFU CMKLR1 (11741424_a_at) / Fold change /veh CMKLR1 (11741424_a_at) / RFU LOC101060620 /// MAPK8IP1 (11723275_at) / Fold change /veh LOC101060620 /// MAPK8IP1 (11723275_at) / RFU SPTSSB (11747773_x_at) / Fold change /veh SPTSSB (11747773_x_at) / RFU PRSS12 (11739890_at) / Fold change /veh PRSS12 (11739890_at) / RFU BIN1 (11741810_x_at) / Fold change /veh BIN1 (11741810_x_at) / RFU WNT11 (11732464_a_at) / Fold change /veh WNT11 (11732464_a_at) / RFU C10orf10 (11716521_a_at) / Fold change /veh C10orf10 (11716521_a_at) / RFU C5orf56 (11738089_at) / Fold change /veh C5orf56 (11738089_at) / RFU CYB561 (11721691_x_at) / Fold change /veh CYB561 (11721691_x_at) / RFU ANKRD19P (11752326_a_at) / Fold change /veh ANKRD19P (11752326_a_at) / RFU OR2T12 /// OR2T33 /// OR2T8 (11738714_s_at) / Fold change /veh OR2T12 /// OR2T33 /// OR2T8 (11738714_s_at) / RFU VCAN (11748164_a_at) / Fold change /veh VCAN (11748164_a_at) / RFU JSRP1 (11732532_at) / Fold change /veh JSRP1 (11732532_at) / RFU KRTAP10-11 (11738290_x_at) / Fold change /veh KRTAP10-11 (11738290_x_at) / RFU MYO3A (11730013_a_at) / Fold change /veh MYO3A (11730013_a_at) / RFU EBF3 (11725865_a_at) / Fold change /veh EBF3 (11725865_a_at) / RFU CAMK2N1 (11719241_x_at) / Fold change /veh CAMK2N1 (11719241_x_at) / RFU C5orf56 (11738088_a_at) / Fold change /veh C5orf56 (11738088_a_at) / RFU OLFML3 (11715873_a_at) / Fold change /veh OLFML3 (11715873_a_at) / RFU LOC100653217 /// NTM (11731650_a_at) / Fold change /veh LOC100653217 /// NTM (11731650_a_at) / RFU MAPK11 (11762145_a_at) / Fold change /veh MAPK11 (11762145_a_at) / RFU FIZ1 (11724087_x_at) / Fold change /veh FIZ1 (11724087_x_at) / RFU OASL (11726364_x_at) / Fold change /veh OASL (11726364_x_at) / RFU SOX15 (11748057_x_at) / Fold change /veh SOX15 (11748057_x_at) / RFU CD79A (11719716_a_at) / Fold change /veh CD79A (11719716_a_at) / RFU HIST1H1D (11736915_at) / Fold change /veh HIST1H1D (11736915_at) / RFU CASKIN2 (11723855_a_at) / Fold change /veh CASKIN2 (11723855_a_at) / RFU LOC730098 (11760151_x_at) / Fold change /veh LOC730098 (11760151_x_at) / RFU OR4N2 (11742367_at) / Fold change /veh OR4N2 (11742367_at) / RFU PRRT2 (11749266_a_at) / Fold change /veh PRRT2 (11749266_a_at) / RFU SNX32 (11753110_a_at) / Fold change /veh SNX32 (11753110_a_at) / RFU CDHR5 (11726645_a_at) / Fold change /veh CDHR5 (11726645_a_at) / RFU RCAN1 (11760418_a_at) / Fold change /veh RCAN1 (11760418_a_at) / RFU FAM167A (11723789_a_at) / Fold change /veh FAM167A (11723789_a_at) / RFU FAM26E (11764081_at) / Fold change /veh FAM26E (11764081_at) / RFU ISYNA1 (11749810_s_at) / Fold change /veh ISYNA1 (11749810_s_at) / RFU ACY1 (11761880_at) / Fold change /veh ACY1 (11761880_at) / RFU 11764098_at / Fold change /veh 11764098_at / RFU SAMD14 (11745864_x_at) / Fold change /veh SAMD14 (11745864_x_at) / RFU NPB (11741838_a_at) / Fold change /veh NPB (11741838_a_at) / RFU TMPRSS6 (11731388_a_at) / Fold change /veh TMPRSS6 (11731388_a_at) / RFU KRTAP10-2 (11738614_at) / Fold change /veh KRTAP10-2 (11738614_at) / RFU ARHGAP8 /// PRR5-ARHGAP8 (11727945_x_at) / Fold change /veh ARHGAP8 /// PRR5-ARHGAP8 (11727945_x_at) / RFU KRTAP5-7 /// NADSYN1 (11734609_at) / Fold change /veh KRTAP5-7 /// NADSYN1 (11734609_at) / RFU RASL12 (11751679_a_at) / Fold change /veh RASL12 (11751679_a_at) / RFU CDKN2B (11736163_a_at) / Fold change /veh CDKN2B (11736163_a_at) / RFU PRF1 (11729649_at) / Fold change /veh PRF1 (11729649_at) / RFU, ZNF638 /// ZNF638-IT1 / Fold change vs veh, ZNF638 /// ZNF638-IT1 / RFU, PANK3 / Fold change vs veh, PANK3 / RFU, SH3YL1 / Fold change vs veh, SH3YL1 / RFU, ZEB2 / Fold change vs veh, ZEB2 / RFU, NRIP1 / Fold change vs veh, NRIP1 / RFU, PTTG1IP / Fold change vs veh, PTTG1IP / RFU, CAPN2 / Fold change vs veh, CAPN2 / RFU, MED14 / Fold change vs veh, MED14 / RFU, SNORA58 / Fold change vs veh, SNORA58 / RFU, C1orf63 / Fold change vs veh, C1orf63 / RFU, LRRFIP1 / Fold change vs veh, LRRFIP1 / RFU, NDUFAF7 / Fold change vs veh, NDUFAF7 / RFU, SLC12A2 / Fold change vs veh, SLC12A2 / RFU, IBTK / Fold change vs veh, IBTK / RFU, ESF1 / Fold change vs veh, ESF1 / Fold change vs veh, TMEM50B / RFU, TAOK1 / Fold change vs veh, TAOK1 / RFU, ACBD3 / Fold change vs veh, ACBD3 / RFU, TMA16 / Fold change vs veh, TMA16 / RFU, RWDD3 / Fold change vs veh, RWDD3 / RFU, BCAT1 / Fold change vs veh, BCAT1 / RFU, EDEM3 / Fold change vs veh, EDEM3 / RFU, TMEM33 / Fold change vs veh, TMEM33 / RFU, WDR75 / Fold change vs veh, WDR75 / RFU, AHCTF1 / Fold change vs veh, AHCTF1 / RFU, TFRC / Fold change vs veh, TFRC / RFU, ZDHHC17 / Fold change vs veh, ZDHHC17 / RFU, NOM1 / Fold change vs veh, NOM1 / RFU, ARL8B / Fold change vs veh, ARL8B / RFU, ZBTB11 / Fold change vs veh, ZBTB11 / RFU, TAMM41 / Fold change vs veh, TAMM41 / RFU, KIAA1704 /// LOC100996395 / Fold change vs veh, KIAA1704 /// LOC100996395 / RFU, ING1 / Fold change vs veh, ING1 / RFU, TRMT61B / Fold change vs veh, TRMT61B / RFU, FUBP3 / Fold change vs veh, FUBP3 / RFU, TP53 / Fold change vs veh, TP53 / RFU, TNKS2 / Fold change vs veh, TNKS2 / RFU, ZFP14 / Fold change vs veh, ZFP14 / RFU, ACTR2 / Fold change vs veh, ACTR2 / RFU, PPP3R1 / Fold change vs veh, PPP3R1 / RFU, PIK3R1 / Fold change vs veh, PIK3R1 / RFU, HNRNPA1 / Fold change vs veh, HNRNPA1 / RFU, RNF170 / Fold change vs veh, RNF170 / RFU, ZNF28 / Fold change vs veh, ZNF28 / RFU, RNGTT / Fold change vs veh, RNGTT / RFU, OGT / Fold change vs veh, OGT / RFU, BRD1 / Fold change vs veh, BRD1 / RFU, MARS / Fold change vs veh, MARS / RFU, ZNF655 / Fold change vs veh, ZNF655 / RFU, FAHD1 / Fold change vs veh, FAHD1 / RFU, BDP1 / Fold change vs veh, BDP1 / RFU, LRRCC1 / Fold change vs veh, LRRCC1 / RFU, ARID1A / Fold change vs veh, ARID1A / RFU, ZNF146 / Fold change vs veh, ZNF146 / RFU, ZNF330 / Fold change vs veh, ZNF330 / RFU, GPN3 / Fold change vs veh, GPN3 / RFU, C9orf123 / Fold change vs veh, C9orf123 / RFU, N4BP2L2 / Fold change vs veh, N4BP2L2 / RFU, ARFIP1 / Fold change vs veh, ARFIP1 / RFU, FAM179B / Fold change vs veh, FAM179B / RFU, BCL10 / Fold change vs veh, BCL10 / RFU, UHRF1BP1L / Fold change vs veh, UHRF1BP1L / RFU, BET1 / Fold change vs veh, BET1 / RFU, CNOT2 / Fold change vs veh, CNOT2 / RFU, ZNF268 / Fold change vs veh, ZNF268 / Fold change vs veh, ZNF507 / RFU, DGCR2 / Fold change vs veh, DGCR2 / RFU, WDSUB1 / Fold change vs veh, WDSUB1 / Fold change vs veh, HSP90B1 /// MIR3652 / RFU, ADSS / Fold change vs veh, ADSS / RFU, GK / Fold change vs veh, GK / RFU, ZNF148 / Fold change vs veh, ZNF148 / RFU, TAF9 / Fold change vs veh, TAF9 / RFU, SLC1A5 / Fold change vs veh, SLC1A5 / RFU, SLMO2 / Fold change vs veh, SLMO2 / RFU, ABCC4 / Fold change vs veh, ABCC4 / RFU, LOC101060439 /// RAP1B / Fold change vs veh, LOC101060439 /// RAP1B / RFU, RFX7 / Fold change vs veh, RFX7 / RFU, GTPBP10 / Fold change vs veh, GTPBP10 / RFU, CNEP1R1 / Fold change vs veh, CNEP1R1 / RFU, BIVM-ERCC5 /// ERCC5 / Fold change vs veh, BIVM-ERCC5 /// ERCC5 / RFU, ILF3 / Fold change vs veh, ILF3 / RFU 11762660_at / Fold change /veh 11762660_at / RFU VCAN (11757783_s_at) / Fold change /veh VCAN (11757783_s_at) / RFU DDX43 (11728927_at) / Fold change /veh DDX43 (11728927_at) / RFU KRT8 (11758188_x_at) / Fold change /veh KRT8 (11758188_x_at) / RFU NKD1 (11759106_at) / Fold change /veh NKD1 (11759106_at) / RFU SRD5A1 (11742802_a_at) / Fold change /veh SRD5A1 (11742802_a_at) / RFU TPSAB1 /// TPSB2 (11721975_s_at) / Fold change /veh TPSAB1 /// TPSB2 (11721975_s_at) / RFU GSTM3 (11746129_a_at) / Fold change /veh GSTM3 (11746129_a_at) / RFU IL23R (11737362_x_at) / Fold change /veh IL23R (11737362_x_at) / RFU TMEM51 (11727254_a_at) / Fold change /veh TMEM51 (11727254_a_at) / RFU PIWIL2 (11732686_x_at) / Fold change /veh PIWIL2 (11732686_x_at) / RFU ORM1 (11744905_x_at) / Fold change /veh ORM1 (11744905_x_at) / RFU CCDC152 (11743942_at) / Fold change /veh CCDC152 (11743942_at) / RFU ECM1 (11717891_a_at) / Fold change /veh ECM1 (11717891_a_at) / RFU IL23R (11748794_a_at) / Fold change /veh IL23R (11748794_a_at) / RFU TNFAIP8L3 (11732012_x_at) / Fold change /veh TNFAIP8L3 (11732012_x_at) / RFU MBOAT4 (11741988_at) / Fold change /veh MBOAT4 (11741988_at) / RFU 11764193_at / Fold change /veh 11764193_at / RFU TMEM53 (11763286_at) / Fold change /veh TMEM53 (11763286_at) / RFU MAGEB2 (11727129_at) / Fold change /veh MAGEB2 (11727129_at) / RFU TMEM200A (11744735_a_at) / Fold change /veh TMEM200A (11744735_a_at) / RFU CCDC152 (11751479_a_at) / Fold change /veh CCDC152 (11751479_a_at) / RFU FAM211A (11726209_a_at) / Fold change /veh FAM211A (11726209_a_at) / RFU RGS16 (11746705_a_at) / Fold change /veh RGS16 (11746705_a_at) / RFU VCAN (11755009_s_at) / Fold change /veh VCAN (11755009_s_at) / RFU RHOB (11743442_s_at) / Fold change /veh RHOB (11743442_s_at) / RFU RGS16 (11720943_a_at) / Fold change /veh RGS16 (11720943_a_at) / RFU RGS16 (11720944_at) / Fold change /veh RGS16 (11720944_at) / RFU, VPS4B / Fold change vs veh, VPS4B / RFU, CREB1 / Fold change vs veh, CREB1 / RFU, DNAJC13 / Fold change vs veh, DNAJC13 / RFU, GNAQ / Fold change vs veh, GNAQ / RFU, CDK5R1 / Fold change vs veh, CDK5R1 / RFU, ZRANB3 / Fold change vs veh, ZRANB3 / RFU, CUL4A / Fold change vs veh, CUL4A / RFU, CCNY / Fold change vs veh, CCNY / RFU, UFL1 / Fold change vs veh, UFL1 / RFU, COG3 / Fold change vs veh, COG3 / RFU, DIAPH2 / Fold change vs veh, DIAPH2 / RFU, SKA2 / Fold change vs veh, SKA2 / RFU, AFF3 / Fold change vs veh, AFF3 / RFU, LMF1 / Fold change vs veh, LMF1 / RFU, IPO11 / Fold change vs veh, IPO11 / RFU, DFFB / Fold change vs veh, DFFB / RFU, FOXP1 / Fold change vs veh, FOXP1 / RFU, CARD8 / Fold change vs veh, CARD8 / RFU, STRN3 / Fold change vs veh, STRN3 / RFU, ADK / Fold change vs veh, ADK / RFU, RASSF2 / Fold change vs veh, RASSF2 / RFU, WIPF1 / Fold change vs veh, WIPF1 / RFU, LARP1B / Fold change vs veh, LARP1B / RFU, RASA1 / Fold change vs veh, RASA1 / RFU, RB1 / Fold change vs veh, RB1 / RFU, PPFIA1 / Fold change vs veh, PPFIA1 / RFU, MAT2A / Fold change vs veh, MAT2A / RFU, CCT5 / Fold change vs veh, CCT5 / RFU, WDR92 / Fold change vs veh, WDR92 / RFU, CUX1 / Fold change vs veh, CUX1 / RFU, TTC7A / Fold change vs veh, TTC7A / RFU, TMEM135 / Fold change vs veh, TMEM135 / RFU, DEPTOR / Fold change vs veh, DEPTOR / RFU, CPM / Fold change vs veh, CPM / RFU, DNAJB6 / Fold change vs veh, DNAJB6 / RFU, CACNA2D3 / Fold change vs veh, CACNA2D3 / RFU, DTX4 / Fold change vs veh, DTX4 / RFU, TFCP2 / Fold change vs veh, TFCP2 / RFU, GMCL1 /// GMCL1P1 / Fold change vs veh, GMCL1 /// GMCL1P1 / RFU, AEBP2 / Fold change vs veh, AEBP2 / RFU, SNHG1 /// SNORD22 /// SNORD25 /// SNORD26 /// SNORD27 /// SNORD28 /// SNORD29 /// SNORD31 / Fold change vs veh, SNHG1 /// SNORD22 /// SNORD25 /// SNORD26 /// SNORD27 /// SNORD28 /// SNORD29 /// SNORD31 / Fold change (Aza/veh), C12orf56 (ProbeSet 11735607_a_at) / Fold change (ACY-1035/veh), C12orf56 (ProbeSet 11735607_a_at) / Fold change (Aza/veh), FGFR1OP (ProbeSet 11751329_s_at) / Fold change (ACY-1035/veh), FGFR1OP (ProbeSet 11751329_s_at) / Fold change (Aza/veh), VPS36 (ProbeSet 11739960_a_at) / Fold change (ACY-1035/veh), VPS36 (ProbeSet 11739960_a_at) / RFU SYPL1 (11715823_x_at) / Fold change /veh SYPL1 (11715823_x_at) / RFU IGFBP7 (11715501_s_at) / Fold change /veh IGFBP7 (11715501_s_at) / RFU REEP3 (11722064_at) / Fold change /veh REEP3 (11722064_at) / RFU IGLL1 (11728026_x_at) / Fold change /veh IGLL1 (11728026_x_at): dose or concentration left out as unconfirmed
Conditions: MV-4-11 cells, 48 hours

## Nc1ncn([C@@H]2O[C@H](CO)[C@@H](O)[C@H]2O)c(=O)n1 [azacitidine]
  Fold change /veh 11764193_at: 1.69
